Laboratory results from patent US4405634A, “Imidazole derivatives for treating myocardial infarction” (Burroughs Wellcome Co., priority 1977, dated 1983).

Key:
TXA2 synthetase = biological target: T1, TXA2 synthetase (Equus caballus, UniProt A0A9L0T8T9); experiment: thromboxane production from labelled arachidonic acid by homogenised horse platelets (concentration to reduce the enzyme activity by 50%); assay type: biochemical; details: horse platelet homogenate, pH 7.4, 5 min preincubation, 3 min at 37° C. with arachidonic acid, read-out: ED50 (the source's name) (converted)
T1 construct: arachidonic acid substrate, thromboxane B2 measured by radio-TLC
T1 sequence (A0A9L0T8T9 2-534): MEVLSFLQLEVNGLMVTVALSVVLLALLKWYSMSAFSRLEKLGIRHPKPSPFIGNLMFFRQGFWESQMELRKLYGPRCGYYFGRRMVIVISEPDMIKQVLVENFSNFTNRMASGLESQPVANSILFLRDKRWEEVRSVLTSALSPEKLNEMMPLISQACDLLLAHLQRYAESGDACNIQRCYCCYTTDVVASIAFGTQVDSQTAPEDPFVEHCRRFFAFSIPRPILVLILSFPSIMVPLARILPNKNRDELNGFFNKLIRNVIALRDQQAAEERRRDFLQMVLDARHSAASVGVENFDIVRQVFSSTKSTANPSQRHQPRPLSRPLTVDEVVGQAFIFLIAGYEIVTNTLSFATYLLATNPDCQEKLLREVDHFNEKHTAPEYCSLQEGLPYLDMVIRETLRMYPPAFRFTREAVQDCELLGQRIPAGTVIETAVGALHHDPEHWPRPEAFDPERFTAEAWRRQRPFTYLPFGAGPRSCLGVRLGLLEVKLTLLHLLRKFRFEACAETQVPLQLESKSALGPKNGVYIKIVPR
T1 sequence (F7BQR7 24-599 partner): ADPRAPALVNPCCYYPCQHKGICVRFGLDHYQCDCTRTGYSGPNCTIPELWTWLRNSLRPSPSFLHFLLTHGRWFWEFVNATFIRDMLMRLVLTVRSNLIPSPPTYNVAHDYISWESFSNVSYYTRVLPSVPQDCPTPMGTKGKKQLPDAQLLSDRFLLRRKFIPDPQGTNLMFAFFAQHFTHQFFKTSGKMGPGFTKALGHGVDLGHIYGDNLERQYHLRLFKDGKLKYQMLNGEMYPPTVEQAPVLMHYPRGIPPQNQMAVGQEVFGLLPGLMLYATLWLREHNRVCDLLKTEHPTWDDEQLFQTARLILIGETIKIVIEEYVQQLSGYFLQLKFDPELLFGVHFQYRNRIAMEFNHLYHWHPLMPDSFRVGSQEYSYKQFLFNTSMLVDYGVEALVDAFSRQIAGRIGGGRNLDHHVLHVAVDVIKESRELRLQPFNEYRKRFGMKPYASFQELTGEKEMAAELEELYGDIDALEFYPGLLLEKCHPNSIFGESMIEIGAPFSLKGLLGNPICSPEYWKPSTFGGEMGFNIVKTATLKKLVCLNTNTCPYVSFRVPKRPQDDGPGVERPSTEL
Description: (§1) Horse platelets were prepared from whole horse blood by differential centrifugation. Approximately 10^6 platelets were homogenised in 1 ml 100 mM Tris buffer pH 7.4. Various concentrations of active compound were added and the reaction sets incubated for 5 minutes at ambient temperature. To each tube was added 20 nM of arachidonic acid containing 10^6 DPM of labelled arachidonic acid and the tubes incubated for 3 minutes at 37° C. in a shaking water bath. After incubation the radioactive products were extracted from the acidified aqueous phase with ethyl acetate and after concentration resolved by thin layer chromotography on silica gel with chloroform/methanol/acetic acid/water (90:8:1:0.8) as a developing solvent. The amount of thromboxane produced was measured by scraping the radioactive zone corresponding to thromboxane B2 and estimating the radioactivity in a liquid scintillation counter.
The concentration of active compound to reduce the enzyme activity by 50% (ED50) was established.

[1] = test system: PGE, PGF and PGD (anti-aggregatory-prostaglandin generating enzymes); experiment: selectivity: amount of PGE, PGF and PGD produced by homogenised horse platelets; assay type: biochemical; design: key: O indicates no selectivity; + low selectivity; ++ medium selectivity; details: the greater the selectivity, the more anti-aggregating prostaglandins are produced
Description: as §1
The selectivity of the active compounds was measured in a similar manner to that described above and the amount of PGE, PGF and PGD produced was determined. The greater the selectivity, the more of the anti-aggregating prostaglandins are produced.
The ED50 and Selectivity results are shown in Table A in which O indicates no selectivity; + low selectivity and ++ medium selectivity.

serum cholesterol = details: U.K. Pat. No. 1 364 312; Biochem. Pharmacol. 24, 1902-1903, 1975; cited from earlier work
[2] = test system: enzymic conversion of the endoperoxides (PGG2 and PGH2) to thromboxane A2; details: platelet microsomes; Moncada et al., Prostaglandins, 13/4, 611-618, 1977; cited from earlier work
platelet aggregation = experiment: inhibition of platelet aggregation in vivo
platelet clumps = experiment: disaggregation of platelet clumps

| Structure (SMILES) | IC50 (TXA2 synthetase) [µM] | Selectivity [1] | also measured |
| --- | --- | --- | --- |
| Clc1ccc(C=CCn2ccnc2)c(Cl)c1 [1-[3-(2,4-dichlorophenyl)prop-2-enyl]imidazole] | 16.2 | + |  |
| CCCCCCCCCCCCn1ccnc1 [1-n-dodecylimidazole] |  |  | lowering serum cholesterol levels (serum cholesterol): capable of lowering serum cholesterol levels |
| c1c[nH]cn1 [Imidazole] |  |  | inhibition of the enzymic conversion of PGG2 and PGH2 to thromboxane A2 [2]: some degree of inhibition |
| Clc1cccc(Cl)c1C=CCn1ccnc1 [1-[3-(2,6-dichlorophenyl)prop-2-enyl]imidazole] | 3.95 | + |  |
| Cc1cc(C)c(Cn2ccnc2)c(C)c1 [1-(2,4,6-Trimethylbenzyl)imidazole, 1-(2,4,6-trimethylbenzyl)imidazole] | 17 | ++ |  |
| Cn1ccnc1 [1-methylimidazole] |  |  | inhibition of the enzymic conversion of PGG2 and PGH2 to thromboxane A2 [2]: some degree of inhibition |
| Cc1ccc(Cn2ccnc2)cc1C [1-(3,4-Dimethylbenzyl)imidazole, 1-(3,4-dimethylbenzyl)imidazole] | 32.2 | ++ | inhibiting platelet aggregation in vivo (platelet aggregation): capable of inhibiting platelet aggregation in vivo; disaggregating platelet clumps (platelet clumps): capable of disaggregating platelet clumps |
